According to patent US11000033B2, “Ketone or oxime compound, and herbicide” (NISSAN CHEMICAL CORPORATION, priority 2014, dated 2021):

Experiments:
Format in all cases: in vivo
[1] = tested on: Digitaria ciliaris; assay: Test Example 4: herbicidal effect by soil treatment (symbol F); conditions: application herbicide amount 320 g/ha
Outline: (§1)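 Seeds were sown in sterilized diluvial soil, covered with about 1.5 cm of soil, and the soil surface was sprayed with a water-diluted emulsion of the compound at a predetermined rate. Plants grew in a greenhouse at 25° C. to 30° C.; effects were scored visually 3 weeks after application.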

[2] = tested on: Digitaria ciliaris; assay: Test Example 5: herbicidal effect by foliage application, plastic box (symbol F); conditions: 320 g/ha, 3 weeks after application
Outline: (§2)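 Seeds were sown in sterilized diluvial soil, covered with about 1.5 cm of soil and grown 14 days in a greenhouse at 25° C. to 30° C. An emulsifiable formulation diluted in water to a set rate was sprayed over foliage, and injury was scored 3 weeks later.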

[3] = tested on: Leptochloa chinensis; assay: Test Example 3: herbicidal effect by foliage application, Wagner pot (symbol D); conditions: application herbicide amount 320 g/ha
Outline: (§3)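 Rating at 3 weeks post-spray, by defined criteria. Treatment: emulsion diluted with water to a predetermined amount, applied evenly to foliage of 14-day-old plants raised in alluvial soil flooded 0.1–0.5 cm deep at 25–30 °C, rice co-sown.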

[4] = tested on: Stellaria media; assay: Test Example 5: herbicidal effect by foliage application, plastic box (symbol P); conditions: 320 g/ha, 3 weeks after application
Outline: as §2

[5] = tested on: Echinochloa crus-galli var. crus-galli; assay: Test Example 4: herbicidal effect by soil treatment (symbol H); conditions: application herbicide amount 320 g/ha
Outline: as §1

[6] = tested on: Cyperus difformis; assay: Test Example 3: herbicidal effect by foliage application, Wagner pot (symbol E); conditions: application herbicide amount 320 g/ha
Outline: as §3

[7] = tested on: Scirpus juncoides; assay: Test Example 1: herbicidal activity, application before weed generation in submerged conditions (symbol B); conditions: application herbicide amount 320 g/ha
Outline: (§4)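 Weeds are sown into submerged alluvial soil alongside transplanted 2.5-leaf rice, and the compound, as an emulsion diluted to a set rate, is applied onto the water before emergence. Rating on the 0–5 herbicidal-ratio scale follows 3 weeks of greenhouse growth at 25–30 °C.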

[8] = tested on: Avena fatua; assay: Test Example 5: herbicidal effect by foliage application, plastic box (symbol I); conditions: 320 g/ha, 3 weeks after application
Outline: as §2

[9] = tested on: Veronica persica; assay: Test Example 4: herbicidal effect by soil treatment (symbol R); conditions: application herbicide amount 320 g/ha
Outline: as §1

[10] = tested on: Setaria viridis; assay: Test Example 5: herbicidal effect by foliage application, plastic box (symbol G); conditions: 320 g/ha, 3 weeks after application
Outline: as §2

[11] = tested on: Setaria viridis; assay: Test Example 4: herbicidal effect by soil treatment (symbol G); conditions: application herbicide amount 320 g/ha
Outline: as §1

[12] = tested on: Echinochloa oryzacola Vasing.; assay: Test Example 1: herbicidal activity, application before weed generation in submerged conditions (symbol A); conditions: application herbicide amount 320 g/ha
Outline: as §4

[13] = tested on: Monochoria vaginalis; assay: Test Example 2: herbicidal activity, application during weed generation in submerged conditions (symbol C); conditions: Table 23; application herbicide amount 320 g/ha; grade 0-5 by criteria of Test Example 1
Outline: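 Flooded-soil post-emergence test: emulsion of compound, water-diluted to target rate, applied to paddy water surface at 1–2 leaf stage of mixed-sown weeds (alluvial soil, 4 cm water, 25–30° C. greenhouse); visual rating 3 weeks after application.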

[14] = tested on: beet; assay: Test Example 4: effect on crop by soil treatment (symbol f); conditions: application herbicide amount 320 g/ha
Outline: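 Greenhouse culture at 25° C. to 30° C. followed sowing of seed in spots on sterilized diluvial soil with a soil cover close to 1.5 cm thick.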

SMILES	Herbicidal effect grade, F: Digitaria ciliaris [1]	F: Digitaria ciliaris, herbicidal effect (criteria of Test Example 1) [2]	herbicidal effect on D (Leptochloa chinensis), grade 0-5 [3]	P: Stellaria media, herbicidal effect (criteria of Test Example 1) [4]	Herbicidal effect grade, H: Echinochloa crus-galli var. crus-galli [5]	herbicidal effect on E, grade 0-5 [6]	Herbicidal effect grade, B: Scirpus juncoides [7]	I: Avena fatua, herbicidal effect (criteria of Test Example 1) [8]	Herbicidal effect grade, R: Veronica persica [9]	G: Setaria viridis, herbicidal effect (criteria of Test Example 1) [10]	Herbicidal effect grade, G: Setaria viridis [11]	Herbicidal effect grade, A: Echinochloa oryzacola Vasing. [12]	Herbicidal effect grade, C: Monochoria vaginalis [13]	Effect on crop grade, f: beet [14]
CON=C(C)CC1CC(OC(=O)COc2ccccc2)=C(c2c(C)cc(C)cc2OC)C1=O (stereo not shown) [6-091]	5 (Herbicidal ratio of 90% or more (almost completely withered))	5 (Herbicidal ratio of 90% or more (almost completely withered))	5 (Herbicidal ratio of 90% or more (almost completely withered))	4 (Herbicidal ratio of 70% or higher and lower than 90%)	5 (Herbicidal ratio of 90% or more (almost completely withered))	5 (Herbicidal ratio of 90% or more (almost completely withered))	5 (Herbicidal ratio of 90% or more (almost completely withered))	5 (Herbicidal ratio of 90% or more (almost completely withered))	4 (Herbicidal ratio of 70% or higher and lower than 90%)	5 (Herbicidal ratio of 90% or more (almost completely withered))	5 (Herbicidal ratio of 90% or more (almost completely withered))	5 (Herbicidal ratio of 90% or more (almost completely withered))	3 (Herbicidal ratio of 40% or higher and lower than 70%)	1 (Herbicidal ratio of 5% or higher and lower than 20%)
CON=C(C)CC1CC(OC(=O)COc2ccccc2)=C(c2c(C)cc(-c3ccc(Cl)cc3Cl)cc2C)C1=O (stereo not shown) [6-092]	5 (Herbicidal ratio of 90% or more (almost completely withered))	5 (Herbicidal ratio of 90% or more (almost completely withered))	5 (Herbicidal ratio of 90% or more (almost completely withered))	3 (Herbicidal ratio of 40% or higher and lower than 70%)	3 (Herbicidal ratio of 40% or higher and lower than 70%)	4 (Herbicidal ratio of 70% or higher and lower than 90%)	0 (Herbicidal ratio of 5% or lower (almost no effect))	5 (Herbicidal ratio of 90% or more (almost completely withered))	0 (Herbicidal ratio of 5% or lower (almost no effect))	5 (Herbicidal ratio of 90% or more (almost completely withered))	5 (Herbicidal ratio of 90% or more (almost completely withered))	3 (Herbicidal ratio of 40% or higher and lower than 70%)	0 (Herbicidal ratio of 5% or lower (almost no effect))	0 (Herbicidal ratio of 5% or lower (almost no effect))
CON=C(C)CC1CC(OC(=O)N2CCOCC2)=C(c2c(C)cc(-c3ccc(F)c(Cl)c3)cc2C)C1=O (stereo not shown) [6-093]	5 (Herbicidal ratio of 90% or more (almost completely withered))	5 (Herbicidal ratio of 90% or more (almost completely withered))	5 (Herbicidal ratio of 90% or more (almost completely withered))	4 (Herbicidal ratio of 70% or higher and lower than 90%)	5 (Herbicidal ratio of 90% or more (almost completely withered))	4 (Herbicidal ratio of 70% or higher and lower than 90%)	5 (Herbicidal ratio of 90% or more (almost completely withered))	5 (Herbicidal ratio of 90% or more (almost completely withered))	4 (Herbicidal ratio of 70% or higher and lower than 90%)	5 (Herbicidal ratio of 90% or more (almost completely withered))	5 (Herbicidal ratio of 90% or more (almost completely withered))	5 (Herbicidal ratio of 90% or more (almost completely withered))	3 (Herbicidal ratio of 40% or higher and lower than 70%)	0 (Herbicidal ratio of 5% or lower (almost no effect))
CON=C(C)CC1CC(OC(=O)N2CCOCC2)=C(c2c(C)cc(C)cc2OC)C1=O (stereo not shown) [6-094]	5 (Herbicidal ratio of 90% or more (almost completely withered))	5 (Herbicidal ratio of 90% or more (almost completely withered))	5 (Herbicidal ratio of 90% or more (almost completely withered))	3 (Herbicidal ratio of 40% or higher and lower than 70%)	5 (Herbicidal ratio of 90% or more (almost completely withered))	5 (Herbicidal ratio of 90% or more (almost completely withered))	5 (Herbicidal ratio of 90% or more (almost completely withered))	5 (Herbicidal ratio of 90% or more (almost completely withered))	3 (Herbicidal ratio of 40% or higher and lower than 70%)	5 (Herbicidal ratio of 90% or more (almost completely withered))	5 (Herbicidal ratio of 90% or more (almost completely withered))	5 (Herbicidal ratio of 90% or more (almost completely withered))	1 (Herbicidal ratio of 5% or higher and lower than 20%)	0 (Herbicidal ratio of 5% or lower (almost no effect))
CON=C(C)CC1CC(OS(=O)(=O)N(C)C)=C(c2c(C)cc(C)cc2OC)C1=O (stereo not shown) [6-095]	5 (Herbicidal ratio of 90% or more (almost completely withered))	5 (Herbicidal ratio of 90% or more (almost completely withered))	5 (Herbicidal ratio of 90% or more (almost completely withered))	1 (Herbicidal ratio of 5% or higher and lower than 20%)	5 (Herbicidal ratio of 90% or more (almost completely withered))	5 (Herbicidal ratio of 90% or more (almost completely withered))	4 (Herbicidal ratio of 70% or higher and lower than 90%)	5 (Herbicidal ratio of 90% or more (almost completely withered))	0 (Herbicidal ratio of 5% or lower (almost no effect))	5 (Herbicidal ratio of 90% or more (almost completely withered))	5 (Herbicidal ratio of 90% or more (almost completely withered))	5 (Herbicidal ratio of 90% or more (almost completely withered))	2 (Herbicidal ratio of 20% or higher and lower than 40%)	0 (Herbicidal ratio of 5% or lower (almost no effect))
